# In patent US8871753B2, “Macrocyclic compounds and their use as kinase inhibitors” (Incyte Corporation, priority 2008, dated 2014):
# Where a name gives a salt, the structure may show the parent alone. Read-outs that look alike come from different tables or passages of the source.
# How the values were obtained:
# Format in all cases: biochemical
# [1] = target: T1, human JAK1 (a.a. 837-1142) (Homo sapiens, UniProt P23458); experiment: In vitro JAK kinase assay (HTRF, phosphorylation of a biotinylated peptide), JAK1; conditions: read-out: JAK1 IC50
# T1 construct: human JAK1 (a.a. 837-1142); His tag (N); made in house; host or cells: insect cells (baculovirus)
# T1 sequence (P23458 849-1154): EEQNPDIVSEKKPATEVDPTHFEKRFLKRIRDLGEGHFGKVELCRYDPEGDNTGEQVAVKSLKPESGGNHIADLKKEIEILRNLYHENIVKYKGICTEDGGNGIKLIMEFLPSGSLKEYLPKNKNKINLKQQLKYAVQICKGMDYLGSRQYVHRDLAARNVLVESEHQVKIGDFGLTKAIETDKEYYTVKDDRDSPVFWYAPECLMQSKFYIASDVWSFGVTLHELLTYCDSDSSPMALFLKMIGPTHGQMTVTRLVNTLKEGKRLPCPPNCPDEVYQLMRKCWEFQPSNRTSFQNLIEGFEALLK
# Outline: (§1)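 Kinase activity was measured as phosphorylation of a biotinylated peptide, with ATP at 90 μM for JAK1, 30 μM for JAK2 and 3 μM for JAK3. Reactions ran 1 hr at room temperature, were stopped with EDTA plus SA-APC and Eu-Py20, and were read by HTRF after 40 minutes of antibody binding.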
# [2] = target: T2, human JAK2 (a.a. 828-1132) (Homo sapiens, UniProt O60674); experiment: In vitro JAK kinase assay (HTRF, phosphorylation of a biotinylated peptide), JAK2
# T2 construct: JAK2 (a.a. 828-1132); His tag (N); made in house; host or cells: insect cells (baculovirus)
# T2 sequence (O60674 828-1132): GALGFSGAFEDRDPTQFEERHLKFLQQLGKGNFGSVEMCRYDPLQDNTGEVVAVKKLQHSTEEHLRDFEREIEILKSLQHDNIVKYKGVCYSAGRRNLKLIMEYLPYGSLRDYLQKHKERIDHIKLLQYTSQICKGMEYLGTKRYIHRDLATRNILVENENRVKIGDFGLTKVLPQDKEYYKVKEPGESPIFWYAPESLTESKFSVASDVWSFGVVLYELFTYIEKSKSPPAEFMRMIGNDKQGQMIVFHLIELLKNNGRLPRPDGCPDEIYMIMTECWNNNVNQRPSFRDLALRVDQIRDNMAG
# Outline: as §1
# [3] = target: T3, human JAK3 (a.a. 781-1124) (Homo sapiens, UniProt P52333); experiment: In vitro JAK kinase assay (HTRF, phosphorylation of a biotinylated peptide), JAK3
# T3 construct: JAK3 (a.a. 781-1124); His tag (N); made in house; host or cells: insect cells (baculovirus)
# T3 sequence (P52333 781-1124): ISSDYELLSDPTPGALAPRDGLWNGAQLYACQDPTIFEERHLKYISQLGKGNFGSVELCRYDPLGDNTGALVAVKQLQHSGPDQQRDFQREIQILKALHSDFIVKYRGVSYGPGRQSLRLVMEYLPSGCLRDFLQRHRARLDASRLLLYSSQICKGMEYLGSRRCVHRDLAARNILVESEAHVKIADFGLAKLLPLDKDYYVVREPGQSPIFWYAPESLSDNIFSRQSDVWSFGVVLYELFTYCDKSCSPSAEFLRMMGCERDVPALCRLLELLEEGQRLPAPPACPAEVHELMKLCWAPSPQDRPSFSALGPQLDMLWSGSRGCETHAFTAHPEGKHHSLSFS
# Outline: as §1
# [4] = target: TYK2 (Homo sapiens, UniProt P29597); experiment: TYK2 kinase inhibition (Table A1)
# Chain of TYK2 (P29597 whole entry): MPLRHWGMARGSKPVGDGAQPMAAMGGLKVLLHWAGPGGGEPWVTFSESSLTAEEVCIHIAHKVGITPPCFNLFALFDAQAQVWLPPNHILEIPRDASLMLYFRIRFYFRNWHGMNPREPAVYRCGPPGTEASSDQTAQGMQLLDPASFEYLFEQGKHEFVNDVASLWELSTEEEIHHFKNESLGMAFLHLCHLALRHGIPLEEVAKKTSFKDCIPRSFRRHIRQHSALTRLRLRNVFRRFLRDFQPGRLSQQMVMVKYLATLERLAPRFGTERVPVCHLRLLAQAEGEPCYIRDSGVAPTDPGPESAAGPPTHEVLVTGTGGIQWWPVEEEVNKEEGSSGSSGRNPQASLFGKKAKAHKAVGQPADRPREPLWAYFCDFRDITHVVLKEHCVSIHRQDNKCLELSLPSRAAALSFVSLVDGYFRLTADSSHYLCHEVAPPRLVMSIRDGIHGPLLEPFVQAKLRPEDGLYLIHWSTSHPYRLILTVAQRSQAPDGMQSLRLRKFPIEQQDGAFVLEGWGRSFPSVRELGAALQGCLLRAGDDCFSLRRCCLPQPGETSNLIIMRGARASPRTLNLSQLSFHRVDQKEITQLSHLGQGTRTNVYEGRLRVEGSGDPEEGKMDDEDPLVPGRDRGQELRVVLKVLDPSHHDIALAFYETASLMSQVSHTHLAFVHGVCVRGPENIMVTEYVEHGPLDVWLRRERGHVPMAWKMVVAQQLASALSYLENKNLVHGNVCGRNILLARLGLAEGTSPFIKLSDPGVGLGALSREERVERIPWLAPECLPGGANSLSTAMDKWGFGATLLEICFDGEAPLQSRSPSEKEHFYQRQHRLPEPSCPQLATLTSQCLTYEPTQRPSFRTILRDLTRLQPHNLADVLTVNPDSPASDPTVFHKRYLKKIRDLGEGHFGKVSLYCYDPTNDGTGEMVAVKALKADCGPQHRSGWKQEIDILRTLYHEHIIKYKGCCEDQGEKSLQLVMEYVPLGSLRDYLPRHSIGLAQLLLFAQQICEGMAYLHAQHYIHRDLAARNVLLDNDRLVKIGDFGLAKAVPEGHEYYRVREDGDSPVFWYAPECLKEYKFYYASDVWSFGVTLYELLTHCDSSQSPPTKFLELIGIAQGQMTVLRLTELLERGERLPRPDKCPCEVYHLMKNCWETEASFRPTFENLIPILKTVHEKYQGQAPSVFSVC
IC50 [1],IC50 [2],IC50 [3],IC50 [4],IC50 ([1]; Table D1),IC50 ([2]; Table D1),IC50 ([3]; Table D1),IC50 ([4]; Table D1),SMILES
165 nM,321 nM,> 10000 nM,544 nM,–,–,–,–,"O=C(Cc1noc2ccccc12)Nc1ccc2cc1CCc1cccc(c1)Nc1ncc(Cl)c(n1)N2 [Example C45, 2-(1,2-Benzisoxazol-3-yl)-N-[6-chloro-2,4,8,22-tetraazatetracyclo[14.3.1.1(3,7).1(9,13)]docosa-1(20),3(22),4,6,9(21),10,12,16,18-nonaen-12-yl]acetamide trifluoroacetate]"
79 nM,170 nM,1490 nM,165 nM,–,–,–,–,"Cc1nc(CC(=O)Nc2ccc3cc2CCc2cccc(c2)Nc2ncc(Cl)c(n2)N3)c(C)s1 [Example C46, N-[6-Chloro-2,4,8,22-tetraazatetracyclo[14.3.1.1(3,7).1(9,13)]docosa-1(20),3(22),4,6,9(21),10,12,16,18-nonaen-12-yl]-2-(2,5-dimethyl-1,3-thiazol-4-yl)acetamide trifluoroacetate]"
67 nM,134 nM,1140 nM,300 nM,–,–,–,–,"O=C(Cc1coc2ccccc12)Nc1ccc2cc1CCc1cccc(c1)Nc1ncc(Cl)c(n1)N2 [Example C47, 2-(1-Benzofuran-3-yl)-N-[6-chloro-2,4,8,22-tetraazatetracyclo[14.3.1.1(3,7).1(9,13)]docosa-1(20),3(22),4,6,9(21),10,12,16,18-nonaen-12-yl]acetamide trifluoroacetate]"
52 nM,74 nM,1150 nM,647 nM,–,–,–,–,"Cc1ncsc1CCC(=O)Nc1ccc2cc1CCc1cccc(c1)Nc1ncc(Cl)c(n1)N2 [Example C48, N-[6-Chloro-2,4,8,22-tetraazatetracyclo[14.3.1.1(3,7).1(9,13)]docosa-1(20),3(22),4,6,9(21),10,12,16,18-nonaen-12-yl]-3-(4-methyl-1,3-thiazol-5-yl)propanamide trifluoroacetate]"
50 nM,> 400 nM,> 400 nM,326 nM,–,–,–,–,"Cc1cc(C(=O)N2CCC(CC(=O)Nc3ccc4cc3CCc3cncc(c3)Nc3ncc(F)c(n3)N4)CC2)no1 [Example C49, N-[6-Fluoro-2,4,8,18,22-pentaazatetracyclo[14.3.1.1(3,7).1(9,13)]docosa-1(20),3(22),4,6,9(21),10,12,16,18-nonaen-12-yl]-2-{1-[(5-methylisoxazol-3-yl)carbonyl]piperidin-4-yl}acetamide trifluoroacetate]"
13 nM,371 nM,> 400 nM,100 nM,–,–,–,–,"Cc1cc(C(=O)N2CCC(CC(=O)Nc3ccc4cc3CCc3cncc(c3)Nc3ncc(C)c(n3)N4)CC2)no1 [Example C51, 2-{1-[(5-Methylisoxazol-3-yl)carbonyl]piperidin-4-yl}-N-[6-methyl-2,4,8,18,22-pentaazatetracyclo[14.3.1.1(3,7).1(9,13)]docosa-1(20),3(22),4,6,9(21),10,12,16,18-nonaen-12-yl]acetamide bis(trifluoroacetate)]"
> 200 nM,> 200 nM,> 200 nM,> 200 nM,–,–,–,–,"Cc1cc(C(=O)N2CCC(CC(=O)Nc3ccc4cc3CCc3cccc(c3)Nc3ncc(F)c(n3)N4)CC2)no1 [Example C52, N-[6-Fluoro-2,4,8,22-tetraazatetracyclo[14.3.1.1(3,7).1(9,13)]docosa-1(20),3(22),4,6,9(21),10,12,16,18-nonaen-12-yl]-2-{1-[(5-methylisoxazol-3-yl)carbonyl]piperidin-4-yl}acetamide trifluoroacetate]"
39 nM,> 200 nM,> 200 nM,199 nM,–,–,–,–,"Cc1cnc2nc1Nc1ccc(NC(=O)CC3CCN(c4nncs4)CC3)c(c1)CCc1cccc(c1)N2 [Example C53, N-[6-Methyl-2,4,8,22-tetraazatetracyclo[14.3.1.1(3,7).1(9,13)]docosa-1(20),3(22),4,6,9(21),10,12,16,18-nonaen-12-yl]-2-[1-(1,3,4-thiadiazol-2-yl)piperidin-4-yl]acetamide trifluoroacetate]"
65 nM,199 nM,> 200 nM,199 nM,–,–,–,–,"Cc1cc(C(=O)N2CCC(CC(=O)Nc3ccc4cc3CCc3cccc(c3)Nc3ncc(C)c(n3)N4)CC2)no1 [Example C54, 2-{1-[(5-Methylisoxazol-3-yl)carbonyl]piperidin-4-yl}-N-[6-methyl-2,4,8,22-tetraazatetracyclo[14.3.1.1(3,7).1(9,13)]docosa-1(20),3(22),4,6,9(21),10,12,16,18-nonaen-12-yl]acetamide trifluoroacetate]"
96 nM,> 400 nM,> 400 nM,> 400 nM,–,–,–,–,"Clc1cnc2nc1Nc1ccc(OCC3CCNC3)c(c1)CCc1cncc(c1)N2 (stereo not shown) [Example C55, 6-Chloro-12-(pyrrolidin-3-ylmethoxy)-2,4,8,18,22-pentaazatetracyclo[14.3.1.1(3,7).1(9,13)]docosa-1(20),3(22),4,6,9(21),10,12,16,18-nonaene trihydrochloride]"
216 nM,255 nM,> 400 nM,> 400 nM,–,–,–,–,"CC(=O)N1CCC(COc2ccc3cc2CCc2cncc(c2)Nc2ncc(Cl)c(n2)N3)C1 (stereo not shown) [Example C56, 12-[(1-Acetylpyrrolidin-3-yl)methoxy]-6-chloro-2,4,8,18,22-pentaazatetracyclo[14.3.1.1(3,7).1(9,13)]docosa-1(20),3(22),4,6,9(21),10,12,16,18-nonaene bis(trifluoroacetate)]"
> 400 nM,288 nM,> 400 nM,> 400 nM,–,–,–,–,"N#Cc1ccccc1S(=O)(=O)N1CCC(COc2ccc3cc2CCc2cncc(c2)Nc2ncc(Cl)c(n2)N3)C1 (stereo not shown) [Example C57, 2-{[3-({[6-Chloro-2,4,8,18,22-pentaazatetracyclo[14.3.1.1(3,7).1(9,13)]docosa-1(20),3(22),4,6,9(21),10,12,16,18-nonaen-12-yl]oxy}methyl)pyrrolidin-1-yl]sulfonyl}benzonitrile bis(trifluoroacetate)]"
217 nM,> 400 nM,> 400 nM,> 400 nM,–,–,–,–,"Cc1cc(C(=O)N2CCC(COc3ccc4cc3CCc3cncc(c3)Nc3ncc(Cl)c(n3)N4)C2)no1 (stereo not shown) [Example C58, 6-Chloro-12-({1-[(5-methylisoxazol-3-yl)carbonyl]pyrrolidin-3-yl}methoxy)-2,4,8,18,22-pentaazatetracyclo[14.3.1.1(3,7).1(9,13)]docosa-1(20),3(22),4,6,9(21),10,12,16,18-nonaene bis(trifluoroacetate)]"
102 nM,> 400 nM,> 400 nM,371 nM,–,–,–,–,"O=C(Nc1ccccc1)N1CCC(COc2ccc3cc2CCc2cncc(c2)Nc2ncc(Cl)c(n2)N3)C1 (stereo not shown) [Example C59, 3-({[6-Chloro-2,4,8,18,22-pentaazatetracyclo[14.3.1.1(3,7).1(9,13)]docosa-1(20),3(22),4,6,9(21),10,12,16,18-nonaen-12-yl]oxy}methyl)-N-phenylpyrrolidine-1-carboxamide bis(trifluoroacetate)]"
–,–,–,–,126 nM,26 nM,57 nM,129 nM,"Clc1cnc2nc1Nc1ccc(N3CCNCC3)c(c1)CCc1cccc(c1)N2 [Example D83, 6-Chloro-12-piperazin-1-yl-2,4,8,22-tetraazatetracyclo[14.3.1.1(3,7).1(9,13)]docosa-1(20),3(22),4,6,9(21),10,12,16,18-nonaene bis(trifluoroacetate)]"
–,–,–,–,21 nM,7.3 nM,37 nM,45 nM,"CC(C)(C)NC(=O)N1CCN(c2ccc3cc2CCc2cccc(c2)Nc2ncc(Cl)c(n2)N3)CC1 [Example D84, N-(tert-Butyl)-4-[6-chloro-2,4,8,22-tetraazatetracyclo[14.3.1.1(3,7).1(9,13)]docosa-1(20),3(22),4,6,9(21),10,12,16,18-nonaen-12-yl]piperazine-1-carboxamide bis(trifluoroacetate)]"
–,–,–,–,24 nM,6.6 nM,31 nM,40 nM,"CC(=O)N1CCN(c2ccc3cc2CCc2cccc(c2)Nc2ncc(Cl)c(n2)N3)CC1 [Example D85, 12-(4-Acetylpiperazin-1-yl)-6-chloro-2,4,8,22-tetraazatetracyclo[14.3.1.1(3,7).1(9,13)]docosa-1(20),3(22),4,6,9(21),10,12,16,18-nonaene bis(trifluoroacetate)]"
–,–,–,–,295 nM,87 nM,169 nM,268 nM,"C[N+]1(C)CCN(c2ccc3cc2CCc2cccc(c2)Nc2ncc(Cl)c(n2)N3)CC1 [Example D86, 4-[6-Chloro-2,4,8,22-tetraazatetracyclo[14.3.1.1(3,7).1(9,13)]docosa-1(20),3(22),4,6,9(21),10,12,16,18-nonaen-12-yl]-1,1-dimethylpiperazin-1-ium bis(trifluoroacetate)]"
–,–,–,–,18 nM,3.3 nM,34 nM,30 nM,"NC(=O)N1CCN(c2ccc3cc2CCc2cccc(c2)Nc2ncc(Cl)c(n2)N3)CC1 [Example D87, 4-[6-Chloro-2,4,8,22-tetraazatetracyclo[14.3.1.1(3,7).1(9,13)]docosa-1(20),3(22),4,6,9(21),10,12,16,18-nonaen-12-yl]piperazine-1-carboxamide bis(trifluoroacetate)]"
